According to ChEMBL document CHEMBL1131966, “On topography and functionality in the B-D rings of cephalostatin cytotoxins” (Bioorg Med Chem Lett, 1999):
pEC50, pIC50: −log10 of the molar value.

Experiments:
P388 = test: In vitro cytotoxicity against P388 leukemic cell line following a 6 day exposure.; type: functional, cell-based; conditions: Mus musculus, P388, 144 h
A549 [1] = test: In vitro cytotoxicity against Lung A-549 human tumors following a 2 day exposure.; type: functional; conditions: A549, 48 h
A498 [2] = test: In vitro cytotoxicity against Renal A-498 human tumors following a 2 day exposure.; type: functional; conditions: A498, 48 h
SF-295 = test: In vitro cytotoxicity against CNS SF-295 human tumors following a 2 day exposure.; type: functional; conditions: SF-295, 48 h
HT-29 [3] = test: In vitro cytotoxicity against Colon HT-29 human tumors following a 6 day exposure.; type: functional; conditions: HT-29, 144 h, read-out: ED50 (the source's name)
HL-60 = test: In vitro cytotoxicity against HL-60 leukemia human tumors following a 2 day exposure.; type: functional; conditions: HL-60, 48 h
HT-29 [4] = test: In vitro cytotoxicity against Colon HT-29 human tumors following a 2 day exposure.; type: functional; conditions: HT-29, 48 h
Homo sapiens [5] = species on record: Homo sapiens; test: In vitro cytotoxicity against various human tumors (6-8 lines) as determined in the Purdue cell culture laboratory, following a 6 day exposure; type: functional; conditions: 144 h, read-out: ED50 (the source's name)
Homo sapiens [6] = species on record: Homo sapiens; test: In vitro cytotoxicity against Breast avg 1-3 types of human tumors following a 6 day exposure.; type: functional; conditions: 144 h, read-out: ED50 (the source's name)
IGROV-1 = test: In vitro cytotoxicity against Ovary IGROVIg OVI human tumors following a 2 day exposure.; type: functional; conditions: IGROV-1, 48 h
LOX IMVI = test: In vitro cytotoxicity against Skin LOX IMVI human tumors following a 2 day exposure.; type: functional; conditions: 48 h
MCF7 = test: In vitro cytotoxicity against Breast MCF-7 human tumors following a 2 day exposure.; type: functional; conditions: 48 h
[7] = test system: Panel NCI-60 (60 carcinoma cell lines); test: In vitro cytotoxicity against a subset of 60 cell lines (NCI-60) in human tumors following a 2 day exposure. Values in parentheses is the % cell lines affected.; type: functional; conditions: 48 h
NCI [8] = test: In vitro cytotoxicity against a subset of 10 cell lines (NCI-10) in human tumors following a 2 day exposure. Values in parentheses is the % cell lines affected.; type: functional; conditions: 48 h
MIA PaCa-2 = test: (§1) In vitro cytotoxicity against […] PACA-2 human tumors following a 6 day exposure; type: functional; conditions: MIA PaCa-2, 144 h, read-out: ED50 (the source's name)
PC-3 [9] = test: In vitro cytotoxicity against prostate PC-3 human tumors following a 6 day exposure; type: functional; conditions: PC-3, 144 h, read-out: ED50 (the source's name)
PC-3 [10] = test: In vitro cytotoxicity against prostate PC-3 human tumors following a 2 day exposure.; type: functional; conditions: PC-3, 48 h
RXF 393 = test: In vitro cytotoxicity against Renal RXF-393 human tumors following a 2 day exposure.; type: functional; conditions: RXF 393, 48 h
A498 [11] = test: In vitro cytotoxicity against Renal A-498 human tumors following a 6 day exposure.; type: functional; conditions: A498, 144 h, read-out: ED50 (the source's name)
A549 [12] = test: In vitro cytotoxicity against Lung A-549 human tumors following a 6 day exposure.; type: functional; conditions: A549, 144 h, read-out: ED50 (the source's name)
NCI [13] = test: In vitro cytotoxicity against a subset of 10 cell lines (NCI-10) in human tumors following a 2 day exposure; ND is no data; type: functional; conditions: 48 h
[14] = as §1; type: functional; conditions: PaCa-2, 144 h, read-out: ED50 (the source's name)

SMILES	pIC50 (P388)	GI50 (A549 [1]) [nM]	GI50 (A498 [2]) [nM]	GI50 (SF-295) [nM]	pEC50 (HT-29 [3])	GI50 (HL-60) [nM]	GI50 (HT-29 [4]) [nM]	pEC50 (Homo sapiens [6])	GI50 (IGROV-1) [nM]	GI50 (LOX IMVI) [nM]	GI50 (MCF7) [nM]	GI50 [7] [nM]	GI50 (NCI [8]) [nM]	GI50 (PC-3 [10]) [nM]	GI50 (RXF 393) [nM]	other results
C[C@H]1C2C(CC3C4CCC5Cc6nc7c(nc6C[C@]5(C)C4CC(=O)[C@@]32C)CC2CC(=O)C3C4=CC5O[C@]6(CC[C@](C)(O)CO6)[C@@H](C)C5(O)[C@@]4(C)[C@H](O)CC3[C@@]2(C)C7)OC12CCC(C)(C)O2 (stereo partly specified)	7.72	–	–	–	–	–	–	–	–	–	–	–	–	–	–	–
C[C@@H]1[C@@]2(CC[C@](C)(O)CO2)O[C@H]2C=C3[C@H]4CC[C@H]5Cc6nc7c(nc6C[C@]5(C)[C@H]4C[C@@H](O)[C@]3(C)[C@]21O)C[C@@H]1CC[C@H]2C3=C[C@@H]4O[C@]5(CC[C@@](C)(O)CO5)[C@@H](C)[C@]4(O)[C@@]3(C)[C@H](O)C[C@@H]2[C@@]1(C)C7 [RITTERAZINE K]	8.00	110	190	4.1	7.55	4.4	288	7.96	347	20	100	96	4.5	91	1.4	pEC50 (Homo sapiens [5]): 10.33; pEC50 (MIA PaCa-2): 10.29; pEC50 (PC-3 [9]): 11.68
C[C@@H]1C2(OC3C=C4C5CCC6Cc7nc8c(nc7C[C@]6(C)C5C[C@@H](O)[C@]4(C)C31O)CC1CCC3C4=CC5OC6(CCC(C)(C)O6)[C@@H](C)C5[C@@]4(C)[C@H](O)CC3[C@@]1(C)C8)O[C@](C)(CO)C[C@H]2O (stereo partly specified) [RITTEROSTATIN]	–	7.4	3	0.99	–	1.6	65	–	140	9.7	3.4	14	3.8	1.8	0.1	–
COc1cccc2c1C(=O)c1c(O)c3c(c(O)c1C2=O)C[C@@](O)(C(=O)CO)C[C@@H]3O[C@H]1C[C@H](N)[C@H](O)[C@H](C)O1 [DOXORUBICIN]	–	–	–	–	7.43	–	–	6.82	–	–	–	–	–	–	–	pEC50 (A498 [11]): 8.46; pEC50 (A549 [12]): 8.21; pEC50 (Homo sapiens [5]): 7.73; pEC50 (MIA PaCa-2): 8.20; pEC50 (PC-3 [9]): 7.24
CC(=O)O[C@H]1CC2Cc3nc4c(nc3C[C@]2(C)C2C[C@@H](O)[C@@]3(C)C(=CC5O[C@]6(CC[C@](C)(O)CO6)[C@@H](C)C53O)C21)CC1CCC2C(C[C@@H](O)[C@@]3(C)C2CC2OC5(CCC(C)(C)O5)[C@@H](C)C23)[C@@]1(C)C4 (stereo partly specified)	7.02	–	–	–	–	–	–	–	–	–	–	–	–	–	–	–
C[C@@H]1[C@@]2(CC[C@](C)(O)CO2)O[C@H]2C=C3[C@@H]4[C@@H](O)C[C@H]5Cc6nc7c(nc6C[C@]5(C)[C@H]4C[C@@H](O)[C@]3(C)[C@]21O)C[C@@H]1CC[C@H]2[C@H]3C[C@@H]4O[C@@]5(CCC(C)(C)O5)C[C@@H]4[C@@]3(C)[C@H](O)C[C@@H]2[C@@]1(C)C7 [RITTERAZINE B]	9.77	–	–	< 0.1	–	0.16	–	11.68	–	–	–	–	–	–	< 0.1	GI50 (NCI [13]): 1 nM
C[C@@H]1[C@@]2(CC[C@](C)(O)CO2)O[C@H]2C=C3[C@@H]4[C@@H](O)C[C@H]5Cc6nc7c(nc6C[C@]5(C)[C@H]4C[C@@H](O)[C@]3(C)[C@]21O)C[C@@H]1CC[C@H]2[C@H]3C[C@@H]4O[C@@]5(CCC(C)(C)O5)C[C@@H]4[C@@]3(C)C(=O)C[C@@H]2[C@@]1(C)C7 [RITTERAZINE H]	7.74	–	–	–	–	–	–	–	–	–	–	–	–	–	–	–
CC1C2(O)C(C=C3C4CCC5Cc6nc7c(nc6C[C@]5(C)C4C[C@@H](O)[C@@]32C)CC2CCC3C4=CC5OC6(CCC(C)(C)O6)[C@@H](C)C5[C@@]4(C)[C@H](O)CC3[C@@]2(C)C7)O[C@]12CC[C@](C)(O)CO2 (stereo partly specified)	–	76	0.55	1.2	10.92	1.2	> 650	10.44	> 1000	12	37	> 34	4.2	12	0.55	–
C[C@H]1C2C(C[C@H]3C4CCC5Cc6nc7c(nc6C[C@]5(C)C4C[C@@H](O)[C@]23C)CC2CCC3C4=CC5O[C@]6(CC[C@](C)(O)CO6)[C@@H](C)C5(O)[C@@]4(C)[C@H](O)CC3[C@@]2(C)C7)OC12CCC(C)(C)O2 (stereo partly drawn) [14-EPI-7'-DEOXYRITTERAZINE B]	–	76	> 300	9.3	–	> 660	> 650	–	> 1000	45	56	> 105	> 55	40	4.1	–
C[C@@H]1[C@]2(O[C@H]3C=C4[C@@H]5CC[C@H]6Cc7nc8c(nc7C[C@]6(C)[C@H]5C[C@@H](O)[C@]4(C)[C@]31O)C[C@@H]1CC[C@H]3C4=CC[C@@H]5[C@H](C)[C@@]6(OC[C@]45C(=O)C[C@@H]3[C@@]1(C)C8)OC(C)(C)C[C@H]6O)O[C@](C)(CO)C[C@H]2O [CEPHALOSTATIN 1]	–	0.4	< 0.1	< 0.1	–	0.2	6.3	–	10	0.4	2.5	1.2	0.8	< 0.1	< 0.1	–
C[C@@H]1C2(OC3C=C4C5CCC6Cc7nc8c(nc7C[C@]6(C)C5C[C@@H](O)[C@]4(C)C31O)CC1CCC3C(CC(=O)[C@]45CO[C@@]6(OC(C)(C)C[C@H]6O)[C@@H](C)C4CCC35)[C@@]1(C)C8)O[C@](C)(CO)C[C@H]2O (stereo partly specified) [DIHYDROCEPHALOSTATIN 1]	–	0.59	3.6	< 0.1	–	0.12	1.1	–	2.9	0.17	3.5	2.4	0.8	0.22	< 0.1	–
C[C@@H]1C2(OC3C=C4C5CCC6Cc7nc8c(nc7C[C@]6(C)C5C[C@@H](O)[C@]4(C)C31O)CC1CCC3C4=CCC5[C@H](C)[C@@]6(OC[C@]45[C@H](O)CC3[C@@]1(C)C8)OC(C)(C)C[C@H]6O)O[C@](C)(CO)C[C@H]2O (stereo partly specified)	–	–	–	–	11.92	–	–	11.96	–	–	–	–	–	–	–	–
C[C@@H]1[C@]2(O[C@H]3C=C4[C@@H]5CC[C@H]6Cc7nc8c(nc7C[C@]6(C)[C@H]5C[C@@H](O)[C@]4(C)[C@]31O)C[C@@H]1CC[C@H]3C4=C[C@@H]5O[C@]6(CC[C@](C)(O)CO6)C[C@]5(O)[C@@]4(C)[C@H](O)C[C@@H]3[C@@]1(C)C8)O[C@](C)(CO)C[C@H]2O [CEPHALOSTATIN 7]	–	138	31	11	7.52	25	271	7.42	480	37	27	50	16	23	7.9	pEC50 (Homo sapiens [5]): 10.28; pEC50 [14]: 9.39; pEC50 (PC-3 [9]): 11.68
C[C@@H]1[C@@]2(CC[C@](C)(O)CO2)O[C@H]2C=C3[C@@H]4[C@@H](O)C[C@H]5Cc6nc7c(nc6C[C@]5(C)[C@H]4C[C@@H](O)[C@]3(C)[C@]21O)C[C@@H]1CC[C@H]2C3=C[C@@H]4O[C@]5(CC[C@@](C)(O)CO5)[C@@H](C)[C@]4(O)[C@@]3(C)[C@H](O)C[C@@H]2[C@@]1(C)C7 [RITTERAZINE J]	7.85	–	–	–	–	–	–	–	–	–	–	–	–	–	–	–
